For assay [1], the target named is T1, proMMP9(20-445;ΔFnII) (SEQ ID NO:6) (Homo sapiens, UniProt P14780, DEL216-390).
T1 construct: start methionine (N); made in house; host or cells: E. coli BL21(DE3) RIL
T1 sequence (P14780 with tags, fused parts or gaps DEL216-390): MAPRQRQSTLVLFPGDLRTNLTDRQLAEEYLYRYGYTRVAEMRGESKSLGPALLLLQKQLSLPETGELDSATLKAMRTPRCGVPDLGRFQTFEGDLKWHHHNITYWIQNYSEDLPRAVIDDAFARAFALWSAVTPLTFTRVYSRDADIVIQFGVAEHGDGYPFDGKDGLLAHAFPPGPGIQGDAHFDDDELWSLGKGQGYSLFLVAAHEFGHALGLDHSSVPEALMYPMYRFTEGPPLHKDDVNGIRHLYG
The assay can be described thus: ThermoFluor with proMMP9(20-445;ΔFnII). Particulars: read-out: proMMP9(20-445; ΔFnII) (SEQ ID NO: 6) binding. As for the experimental part:
(§1) The ThermoFluor® (TF) assay is a 384-well plate-based binding assay that measures thermal stability of proteins (Biomol Screen 2001, 6, 429-40; Biochemistry 2005, 44, 5258-66). The experiments were carried out using instruments available from Johnson & Johnson Pharmaceutical Research & Development, LLC. TF dye used in all experiments was […] (1,8-ANS) (Invitrogen: A-47).
(§2) Compounds were arranged in a pre-dispensed plate (Greiner Bio-one: 781280), wherein compounds were serially diluted in 100% DMSO across 11 columns within a series. Columns 12 and 24 were used as DMSO reference and contained no compound. For multiple compound concentration-response experiments, the compound aliquots (50 nL) were robotically predispensed directly into black 384-well polypropylene PCR microplates (Abgene: TF-0384/k) using a Cartesian Hummingbird liquid handler (DigiLab, Holliston, Mass.). Following compound dispense, protein and dye solutions were added to achieve the final assay volume of 3 μL. The assay solutions were overlayed with 1 μL of silicone oil (Fluka, type DC 200: 85411) to prevent evaporation.
(§3) Assay plates were robotically loaded onto a thermostatically controlled PCR-type thermal block and then heated from 40 to 90° C. at a ramp-rate of 1° C./min for all experiments. Fluorescence was measured by continuous illumination with UV light (Hamamatsu LC6) supplied via fiber optics and filtered through a band-pass filter (380-400 nm; >6 OD cutoff). Fluorescence emission of the entire 384-well plate was detected by measuring light intensity using a CCD camera (Sensys, Roper Scientific) filtered to detect 500±25 nm, resulting in simultaneous and independent readings of all 384 wells. A single image with 20-sec exposure time was collected at each temperature, and the sum of the pixel intensity in a given area of the assay plate was recorded vs temperature and fit to standard equations to yield the Tm (J Biomol Screen 2001, 6, 429-40).
(§4) Thermodynamic parameters necessary for fitting compound binding for each proMMP were estimated by differential scanning calorimetry (DSC) and from ThermoFluor® data. The heat capacity of unfolding for each protein was estimated from the molecular weight and from ThermoFluor® dosing data.
ThermoFluor® with proMMP9(20-445;ΔFnII) (SEQ ID NO:6)
The protein sample preparations included a desalting buffer exchange step via a PD-10 gravity column (GE Healthcare). The desalting buffer exchange was performed prior to diluting the protein to the final assay concentration of 2.8 μM proMMP9(20-445;ΔFnII) (SEQ ID NO:6). The concentration of proMMP9(20-445;ΔFnII) (SEQ ID NO:6) was determined spectrophotometrically based on a calculated extinction coefficient of ε280=39880 M^−1cm^−1, a calculated molecular weight of 28.2 kDa, and calculated pI of 5.5. ThermoFluor® reference conditions were define as follows: 80 μg/mL (2.8 μM) proMMP9(20-445;ΔFnII) (SEQ ID NO:6), 50 μM 1,8-ANS, pH 7.0 Buffer (50 mM HEPES pH 7.0, 100 mM NaCl, 0.001% Tween-20, 2.5 mM MgCl2, 300 μM CaCl2). The thermodynamic parameters for proMMP9(20-445;ΔFnII) (SEQ ID NO:6) are as follows: Tm (° C.)=72 (+/−0.1), ΔUH(Tm) (cal mol^−1)=160000(+/−5000), ΔUS(Tm) (cal mol^−1 K^−1)=434, ΔUCp (cal mol^−1 K^−1)=2400.
(In DSF a fluorescence change marks the thermal transition of the protein.)

Assay [2] deals with T2, proMMP9(67-444;ΔFnII) (SEQ ID NO:5) (Homo sapiens, UniProt P14780, DEL216-390).
T2 construct: start methionine (N); made in house; host or cells: E. coli BL21(DE3) RIL
T2 sequence (P14780 with tags, fused parts or gaps DEL216-390): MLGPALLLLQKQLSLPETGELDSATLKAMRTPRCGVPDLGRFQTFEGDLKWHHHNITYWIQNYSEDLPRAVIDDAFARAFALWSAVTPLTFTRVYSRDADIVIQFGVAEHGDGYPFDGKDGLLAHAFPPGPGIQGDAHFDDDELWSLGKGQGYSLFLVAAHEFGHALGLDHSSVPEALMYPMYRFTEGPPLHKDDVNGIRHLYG
Put plainly: ThermoFluor with proMMP9(67-444;ΔFnII). To be noted: read-out: proMMP9(67-444; ΔFnII) (SEQ ID NO: 5) binding. As for the experimental part: as §1, §2, §3, §4
ThermoFluor® with proMMP9(67-444;ΔFnII) (SEQ ID NO:5)
The protein sample preparations had to include a desalting buffer exchange step via a PD-10 gravity column (GE Healthcare). The desalting buffer exchange was performed prior to diluting the protein to the final assay concentration of 3.5 μM proMMP9(67-444;ΔFnII) (SEQ ID NO:5). The concentration of proMMP9(67-444;ΔFnII) (SEQ ID NO:5) was determined spectrophotometrically based on a calculated extinction coefficient of ε280=33900 M^−1cm^−1, a calculated molecular weight of 22.6 kDa, and calculated pI of 5.20. ThermoFluor® reference conditions were defined as follows: 80 μg/mL (3.5 μM) proMMP9(67-444;ΔFnII) (SEQ ID NO:5), 50 μM 1,8-ANS, pH 7.0 Buffer (50 mM HEPES pH 7.0, 100 mM NaCl, 0.001% Tween-20, 2.5 mM MgCl2, 300 μM CaCl2). The thermodynamic parameters for proMMP9(67-444;ΔFnII) (SEQ ID NO:5) are as follows: Tm (° C.)=63 (+/−0.1), ΔUH(Tm) (cal mol^−1)=105000(+/−5000), ΔUS(Tm) (cal mol^−1 K^−1)=450, […].

Assay [3] has as its target T3, full-length proMMP9(1-707) (SEQ ID NO:1) (Homo sapiens, UniProt P14780, R574P).
T3 construct: made in house; host or cells: HEK293 (proMMP9, secreted); E. coli (MMP3)
Put plainly: proMMP9/MMP3 P126 Activation Assay. Type of assay: biochemical. To be noted: proMMP9(1-707) from HEK293 cells activated by catalytic MMP3. As for the experimental part:
proMMP9/MMP3 P126 Activation Assay
The reaction volume was 50 μL. […] Reactivity of residual MMP3 towards P-126 substrate was minimal under these conditions.

Where a name gives a salt, the structure may show the parent alone. A value given as a limit tells only on which side of the number the result lay.

T3 sequence (P14780 20-707 R574P): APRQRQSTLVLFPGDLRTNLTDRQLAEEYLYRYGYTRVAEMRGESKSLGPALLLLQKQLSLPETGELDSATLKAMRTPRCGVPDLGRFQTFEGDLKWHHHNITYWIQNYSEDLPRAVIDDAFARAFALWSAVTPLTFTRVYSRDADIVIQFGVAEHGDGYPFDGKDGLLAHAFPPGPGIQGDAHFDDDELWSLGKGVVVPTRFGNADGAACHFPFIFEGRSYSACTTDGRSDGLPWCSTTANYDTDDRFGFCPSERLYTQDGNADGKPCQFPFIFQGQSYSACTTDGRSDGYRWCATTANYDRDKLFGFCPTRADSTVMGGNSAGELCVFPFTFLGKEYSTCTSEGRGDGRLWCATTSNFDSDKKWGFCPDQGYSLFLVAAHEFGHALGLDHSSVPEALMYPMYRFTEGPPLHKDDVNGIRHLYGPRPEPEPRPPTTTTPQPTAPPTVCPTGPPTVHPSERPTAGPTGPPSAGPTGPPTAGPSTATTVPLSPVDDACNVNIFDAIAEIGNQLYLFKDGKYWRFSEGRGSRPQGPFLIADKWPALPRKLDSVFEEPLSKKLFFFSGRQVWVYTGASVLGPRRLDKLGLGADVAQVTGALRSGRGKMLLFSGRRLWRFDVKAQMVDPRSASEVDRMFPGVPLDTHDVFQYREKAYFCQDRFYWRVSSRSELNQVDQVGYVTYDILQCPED

As to `CC(C)Oc1ccc(S(N)(=O)=O)cc1Nc1nc(-c2ccc(OCCN3CCC(F)(F)CC3)cc2)cs1` [Example 31, 3-((4-(4-(2-(4,4-Difluoropiperidin-1-yl)ethoxy)phenyl)thiazol-2-yl)amino)-4-isopropoxybenzenesulfonamide.TFA], the Kd in assay [1] came out at 75 nM; in assay [2], 150 nM. Besides, the IC50 (usually the concentration needed to halve the response being measured) in assay [3] is 1100 nM.
`COc1ccc(F)cc1Nc1nc(-c2ccc(CN3CCN(C(C)C)CC3)cc2)cs1` [Example 63, N-(5-fluoro-2-methoxyphenyl)-4-(4-((4-isopropylpiperazin-1-yl)methyl)phenyl)thiazol-2-amine.TFA]: the Kd in assay [1] is 4600 nM; in assay [2], 960 nM. The same compound displayed an IC50 in assay [3] of 250 nM.
As to `COc1ccc(F)cc1Nc1nc(-c2ccc(OCCN3CCN(C4CC4)CC3)cc2)cs1` [Example 70, 4-(4-(2-(4-cyclopropylpiperazin-1-yl)ethoxy)phenyl)-N-(5-fluoro-2-methoxyphenyl)thiazol-2-amine.TFA], the figures for the Kd in assay [1] and in assay [2] were over 76000 nM and 2100 nM, respectively. This compound also registered a 50% inhibitory concentration (IC50) in assay [3] of 480 nM.
As for `COc1ccc(F)cc1Nc1nc(-c2ccc(OCCN3CCC(F)(F)CC3)cc2)cs1` [Example 67, 4-(4-(2-(4,4-difluoropiperidin-1-yl)ethoxy)phenyl)-N-(5-fluoro-2-methoxyphenyl)thiazol-2-amine.TFA], the Kd in assay [1] was over 9000 nM; in assay [2], 7700 nM. In addition, the IC50 in assay [3] is at least 20000 nM.
As to `CC(C)Oc1ccc(S(N)(=O)=O)cc1Nc1nc(-c2ccc(C3CCNCC3)cc2)cs1` [Example 24, 4-Isopropoxy-3-((4-(4-(piperidin-4-yl)phenyl)thiazol-2-yl)amino)benzenesulfonamide.TFA], in assay [3], the IC50 was 130 nM.
On to `CC(C)Oc1ccc(S(N)(=O)=O)cc1Nc1nc(-c2ccc(OCCN3CCC(F)CC3)cc2)cs1` [Example 34, 3-((4-(4-(2-(4-fluoropiperidin-1-yl)ethoxy)phenyl)thiazol-2-yl)amino)-4-isopropoxybenzenesulfonamide.TFA], for which the results for the Kd in assay [1] and in assay [2] were 21 nM and 28 nM, respectively. Further, inhibition in assay [3] was half-maximal at 120 nM (IC50).
Take `CCN1CCN(c2ccc(-c3csc(Nc4cc(S(N)(=O)=O)ccc4OC(C)C)n3)cc2)CC1` [Example 4, 3-((4-(4-(4-Ethylpiperazin-1-yl)phenyl)thiazol-2-yl)amino)-4-isopropoxybenzenesulfonamide.TFA]: the Kd amounted to 110 nM in assay [1] and 100 nM in assay [2]. Also, the IC50 in assay [3] was 85 nM.
`NS(=O)(=O)c1cc2c(c(Nc3nc(-c4ccc(OCCN5CCC(F)CC5)cc4)cs3)c1)OCC2` [Example 38, 7-((4-(4-(2-(4-fluoropiperidin-1-yl)ethoxy)phenyl)thiazol-2-yl)amino)-2,3-dihydrobenzofuran-5-sulfonamide.TFA]: the results for the Kd in assay [1] and in assay [2] were 2600 nM and 3000 nM, respectively. In assay [3], this compound yielded a half-maximal inhibitory concentration (IC50) of over 20000 nM.
For the compound `COc1ccncc1Nc1nc(-c2ccc(OCCN3CCC(F)CC3)cc2)cs1` [Example 35, 4-(4-(2-(4-fluoropiperidin-1-yl)ethoxy)phenyl)-N-(4-methoxypyridin-3-yl)thiazol-2-amine.TFA], the results for the Kd in assay [1] and in assay [2] were 4300 nM and 1000 nM, respectively. This compound also returned an IC50 in assay [3] of 780 nM.
For the compound `CC(C)Oc1ccc(S(N)(=O)=O)cc1Nc1nc(-c2ccc(CN3CCOCC3)cc2)cs1` [Example 59, 4-isopropoxy-3-((4-(4-(morpholinomethyl)phenyl)thiazol-2-yl)amino)benzenesulfonamide.TFA], the Kd in assay [1] is 98 nM; in assay [2] it was 180 nM. The compound also displayed a 50% inhibitory concentration (IC50) in assay [3] of 300 nM.
`COc1ccc(F)cc1Nc1nc(-c2ccc(OCCCN3CCOCC3)cc2)cs1` [Example 71, N-(5-fluoro-2-methoxyphenyl)-4-(4-(3-morpholinopropoxy)phenyl)thiazol-2-amine.TFA]: the Kd in assay [1] stood at 44000 nM; in assay [2] it was 1800 nM. Half-maximal inhibition in assay [3] (IC50) was put at 200 nM.
For the compound `CC(C)Oc1ccc(F)cc1Nc1nc(-c2ccc(OCCN3CCOCC3)cc2)cs1` [Example 65, N-(5-fluoro-2-isopropoxyphenyl)-4-(4-(2-morpholinoethoxy)phenyl)thiazol-2-amine.TFA], the Kd in assay [1] was over 19000 nM; in assay [2] it was 4900 nM. Further, the IC50 in assay [3] is at least 20000 nM.
Turning to `CCOc1ccncc1Nc1nc(-c2ccc(OCCN3CCC(F)CC3)cc2)cs1` [Example 36, N-(4-ethoxypyridin-3-yl)-4-(4-(2-(4-fluoropiperidin-1-yl)ethoxy)phenyl)thiazol-2-amine.TFA], the Kd in assay [1] came to 1800 nM; in assay [2] it was 96 nM. The compound further showed an IC50 in assay [3] of 92 nM.
For the compound `CC(C)Oc1ccc(S(N)(=O)=O)cc1Nc1nc(-c2ccc(C3CCN(C(C)C)CC3)cc2)cs1` [Example 27, 4-Isopropoxy-3-((4-(4-(1-isopropylpiperidin-4-yl)phenyl)thiazol-2-yl)amino)benzenesulfonamide.TFA], half-maximal inhibition in assay [3] (IC50) was put at 64 nM.
With `CCN1CC=C(c2ccc(-c3csc(Nc4cc(S(N)(=O)=O)ccc4OC(C)C)n3)cc2)CC1` [Example 14, 3-((4-(4-(1-Ethyl-1,2,3,6-tetrahydropyridin-4-yl)phenyl)thiazol-2-yl)amino)-4-isopropoxybenzenesulfonamide.TFA], 34 nM corresponded to half-maximal inhibition in assay [3] (IC50).
For the compound `CC(C)Oc1ccc(S(N)(=O)=O)cc1Nc1nc(-c2ccc(N3CCN(C(C)C)CC3)cc2)cs1` [Example 5, 4-Isopropoxy-3-((4-(4-(4-isopropylpiperazin-1-yl)phenyl)thiazol-2-yl)amino)benzenesulfonamide.TFA], the midpoint of inhibition in assay [3], the IC50, lay at 130 nM.

The values above are taken from patent publication US20120302569A1, “PHENYL-THIAZOLYL INHIBITORS OF PRO-MATRIX METALLOPROTEINASE ACTIVATION” (priority 2011, published 2012).
